According to patent US20220324835A1 (Nurix Therapeutics, Inc., priority 2018, published 2022):
pIC50: −log10 of the molar value.

Tests used:
[1] = target: T1, Cbl-b (Homo sapiens, UniProt Q13191); assay: Cbl-b inhibition assay (Cbl-b activity assay, FRET, Biological Example 1; 100 mM NaCl, 60 nM Src kinase); assay type: biochemical; conditions: upper bound stated in text lists; read-out: IC50 values in the Cbl-b inhibition assay of Biological Example 1
Outline: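 FRET read-out: loss of signal marks inhibition. Mix = biotin-Avi-Cbl-b (N-term), Src kinase, UbcH5B-Ub(Bodipy-FL, irreversible conjugate), streptavidin-Tb, assay buffer.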

[2] = tested on: T-cell; assay: CD25 cell surface staining on T-cells stimulated with anti-CD3 antibody alone (Biological Example 2); assay type: cell-based, human; conditions: T-cell, read-out: CD25 staining Anti-CD3 stimulation; for fold induction at 1 µM: 1 μM Cbl-b inhibitor
[3] = tested on: T-cell; assay: IL-2 secretion from T-cells co-stimulated with anti-CD3 and anti-CD28 antibody (Biological Example 2); assay type: cell-based, human; conditions: Homo sapiens, T-cell, read-out: IL-2 secretion Anti-CD3/Anti-CD28 stimulation; for fold induction at 0.3 µM: 0.3 μM Cbl-b inhibitor; for fold induction at 1 µM: 1 μM Cbl-b inhibitor
Outline: (§1)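 T-cells were stimulated with anti-CD3 antibody alone or with anti-CD28 antibody, in the presence or absence of Cbl-b inhibitor. IL-2 secretion or CD25 surface staining was measured, and values expressed as fold over the uninhibited baseline […].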

[4] = tested on: T-cell; assay: CD25 cell surface staining on T-cells co-stimulated with anti-CD3 and anti-CD28 antibody (Biological Example 2); assay type: cell-based, human; conditions: Homo sapiens, T-cell, read-out: CD25 staining Anti-CD3/Anti-CD28 stimulation; for fold induction at 0.3 µM: 0.3 μM Cbl-b inhibitor; for fold induction at 1 µM: 1 μM Cbl-b inhibitor
Outline: as §1

[5] = target: T1, Cbl-b; assay: Cbl-b activity assay (Cbl-b inhibition assay), TR-FRET of Cbl-b interaction with UbcH5B-Ub; assay type: biochemical; conditions: assay buffer with 100 mM NaCl, 60 nM Src kinase; read-out: Cbl-b activity IC50
Outline: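 UbcH5B (C85K) conjugated to N-terminally Bodipy-Fluorescein-labeled ubiquitin served as the fluorescent partner. After compound preincubation, Src kinase (60 nM) with 1 mM ATP and 5 mM MgCl2 (final) was added for 1.5 h, followed by a further 1 h incubation. Some values were obtained with 50 mM NaCl and 30 nM Src.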

[6] = tested on: T-cell; assay: IL-2 secretion from T-cells stimulated with anti-CD3 antibody alone (Biological Example 2); assay type: cell-based, human; conditions: T-cell, read-out: IL-2 secretion Anti-CD3 stimulation; for fold induction at 1 µM: 1 μM Cbl-b inhibitor
[7] = Homo sapiens, fold change over baseline (anti-CD3/anti-CD28 stimulated T-cells without inhibitor)
[8] = fold change over baseline (anti-CD3/anti-CD28 stimulated T-cells without inhibitor)
[9] = fold change over baseline, primary human total T-cells
[10] = fold change over baseline, 8 μM Cbl-b inhibitor, primary human total T-cells
[11] = fold change over baseline, 4 μM Cbl-b inhibitor, primary human total T-cells

T1 sequence (Q13191 36-427): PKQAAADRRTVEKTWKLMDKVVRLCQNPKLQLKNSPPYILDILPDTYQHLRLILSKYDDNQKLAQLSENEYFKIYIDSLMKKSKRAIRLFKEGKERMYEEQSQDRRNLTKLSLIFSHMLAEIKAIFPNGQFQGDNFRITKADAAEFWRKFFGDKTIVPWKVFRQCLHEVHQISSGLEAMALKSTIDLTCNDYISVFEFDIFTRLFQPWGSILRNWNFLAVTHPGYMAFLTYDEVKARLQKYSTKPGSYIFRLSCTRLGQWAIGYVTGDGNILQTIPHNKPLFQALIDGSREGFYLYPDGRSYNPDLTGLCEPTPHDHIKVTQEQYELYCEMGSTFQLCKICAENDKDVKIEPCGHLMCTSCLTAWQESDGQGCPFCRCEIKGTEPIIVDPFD

SMILES	pIC50 [1]	fold induction at 1 µM [2, 7]	fold induction at 0.3 µM [3, 8]	fold induction at 1 µM [3, 8]	fold induction at 0.3 µM [4, 8]	fold induction at 1 µM [4, 8]	pIC50 [5]	fold induction at 1 µM [6, 7]	fold induction at 1 µM [2, 9]	fold induction at 8 µM [2, 10]	fold induction at 0.3 µM [3, 9]	fold induction at 1 µM [3, 9]	fold induction at 4 µM [3, 11]	fold induction at 0.3 µM [4, 9]	fold induction at 1 µM [4, 9]	fold induction at 4 µM [4, 11]	fold induction at 1 µM [6, 9]	fold induction at 8 µM [6, 10]
CO[C@@H]1CCN(Cc2cc3c(c(C(F)(F)F)c2)CN(c2cccc(C4(Cc5nncn5C)COC4)c2)C3=O)C[C@@H]1F (relative stereo) [Example 621, 6-(((cis)-3-fluoro-4-methoxypiperidin-1-yl)methyl)-2-(3-(3-((4-methyl-4H-1,2,4-triazol-3-yl)methyl)oxetan-3-yl)phenyl)-4-(trifluoromethyl)isoindolin-1-one]	≥ 7.00	> 1	> 7.5	> 7.5	1.31 to 1.5	1.31 to 1.5	> 7.00	> 0.201										
CN1C[C@H]2C[C@@H]1CN2c1cc2c(c(C(F)(F)F)c1)CN(c1cccc(C3(Cc4nncn4C)COC3)c1)C2=O [Example 569, 2-(3-(3-((4-Methyl-4H-1,2,4-triazol-3-yl)methyl)oxetan-3-yl)phenyl)-6-((1R,4R)-5-methyl-2,5-diazabicyclo[2.2.1]heptan-2-yl)-4-(trifluoromethyl)isoindolin-1-one]	≥ 7.00	> 1	> 7.5	> 7.5	1.31 to 1.5	1.31 to 1.5	> 7.00	> 0.201										
C[C@@H](c1cc2c(c(C(F)(F)F)c1)CN(c1cccc(C3(C(F)(F)c4nncn4C)COC3)c1)C2=O)N1CC[C@H](F)C1 [Example 570, 2-(3-(3-(Difluoro(4-methyl-4H-1,2,4-triazol-3-yl)methyl)oxetan-3-yl)phenyl)-6-((S)-1-((S)-3-fluoropyrrolidin-1-yl)ethyl)-4-(trifluoromethyl)isoindolin-1-one]	≥ 7.00	> 1	2.51 to 5	> 7.5	1.31 to 1.5	1.51 to 1.75	> 7.00	> 0.201										
Cn1cnnc1CC1(c2cccc(N3Cc4c(cc(N5CC(C(F)F)C5)nc4C4CC4)C3=O)c2)COC1 [Example 609, 4-cyclopropyl-6-(3-(difluoromethyl)azetidin-1-yl)-2-(3-(3-((4-methyl-4H-1,2,4-triazol-3-yl)methyl)oxetan-3-yl)phenyl)-2,3-dihydro-1H-pyrrolo[3,4-c]pyridin-1-one]	≥ 7.00	0.801 to 1	2.51 to 5	5 to 7.5	1.01 to 1.3	1.01 to 1.3	> 7.00	0.101 to 0.15										
Cc1cc(C(=O)Nc2cccc(C3(Cc4nncn4C)COC3)c2)nc(C2CCC2)n1 [Compound 340, 2-cyclobutyl-6-methyl-N-(3-(3-((4-methyl-4H-1,2,4-triazol-3-yl)methyl)oxetan-3-yl)phenyl)pyrimidine-4-carboxamide]	≥ 7.00						> 7.00		0.801 to 1	> 1	1.01 to 2.5	5 to 7.5	> 7.5	1.01 to 1.3	1.01 to 1.3	1.31 to 1.5	0.151 to 0.2	> 0.201
Cn1cnnc1CC1(c2cccc(N3Cc4c(cc(N5CCOCC5)cc4C(F)(F)F)C3=O)c2)COC1 [Example 567, 2-(3-(3-((4-Methyl-4H-1,2,4-triazol-3-yl)methyl)oxetan-3-yl)phenyl)-6-morpholino-4-(trifluoromethyl)isoindolin-1-one]	≥ 7.00	0.801 to 1	1.01 to 2.5	2.51 to 5	1.01 to 1.3	1.01 to 1.3	> 7.00	0.051 to 0.1										
